Reference: patent US20110064721A1, “CATHEPSIN-D NEUROPROTECTION” (THE UAB RESEARCH FOUNDATION, priority 2007, published 2011)
Entries after “also recorded” stand apart in the source; their conditions may differ.

Tests used:
SHSY5Y cells = assay: Cell death/survival after transfection, trypan blue exclusion; format: cell-based, human
Method: (§1) Cell culture and transfection: The human neuroblastoma SHSY5Y cells were transfected in triplicate by vector alone, GFP-α-syn, pCMV-CD, or co-transfected by GFP-α-syn (or A53T, MOP, Y125A mutant α-syn) and pCMV-CD (or mutant CD) by Amaxa method as described by the vendor. Transfection efficiency was ˜80% as assessed by cells with or without GFP. Seventy-two (72) hours after transfection, cells were harvested. For chloroquine (10 μM) treatment, the chemicals were added 48 hours after transfection, cells were harvested […]. Live cells were counted by trypan blue exclusion. Relative cell survival was calculated as number of live cells after transfection by pCMV-CD and/or GFP-α-syn divided by live cells after transfection by vector alone. Elevated expression of α-syn or cathepsins was confirmed by Western blot analyses using whole cell extracts.
Overexpression of CD is neuroprotective against α-syn toxicity in mammalian cells. Excessive α-syn induces neuron death in cell cultures, and in a variety of genetic and viral delivery based animal models. To examine the potential of elevating CD level as a means to reduce α-syn-induced cell death, human neuroblastoma SHSY5Y cells were transfected with α-syn, in the absence or presence of increased CD expression (FIG. 4B). Similar to previous studies of α-syn overexpression in yeast, worms and rat neurons, it was observed that overexpression of wildtype α-syn induced robust cell death in SHSY5Y cells.
α-syn point mutation at the major CD cleavage site results in resistance to CD neuroprotection. α-syn is rich in hydrophobic amino acids (52%) and is natively unfolded. CD has a known specificity in recognizing hydrophobic residues. Although α-syn contains many putative CD cleavage sites, the main cleavage occurs at A124-Y125 (Hossain et al., J. Alzheimers Dis. 3:577-584 (2001)). It was observed that CD is also protective against PD-causing mutant α-syn induced-cell death in SHSY5Y cells (FIG. 4D). […] Furthermore, CD is ineffective at attenuating chloroquine- or staurorosporine-induced cell death (FIG. 4D).

dopaminergic neurons = assay: DA neurodegeneration analysis in α-syn transgenic worms; format: in vivo, C. elegans; details: for protection from α-syn-induced dopaminergic neurodegeneration: 7 day old worms overexpressing human cDNA with α-syn
Method: For the DA neurodegeneration analysis, strain UA54 [baEx45; Pdat-1::α-syn, Pddat-1::gfp, Pdat-1 j::CD, rol-6 (su1006)], UA90 [baEx69; Pdat-1::α-syn, Pdat-1j::CD D295R, rol-6 (su1006)], UA91 [baEx70; Pdat-1::α-syn, Pdat-1::CD F2291, rol-6 (su1006)], UA53 [baEx44; Pdat-1::α-syn, rol-6 (su1006)], and UA55 [baEx46; Pdat-1::α-syn, Pdat-1::CL, rol-6 (su1006)] were generated by injecting 50 μg/ml of expression plasmid containing the human cathepsin cDNA and 50 μg/ml of rol-6 into an integrated line of UA44 [baInl1; Pdat-1::α-syn, (Cao et al., J. Neurosci. 25:3801-12 (2005))]. Three stable lines were randomly selected for neurodegeneration analysis. The 6 anterior DA neurons (4 CEP and 2 ADE neurons) of 30 animals/trial were examined for neurodegeneration when the animals were 7 days old. 90 animals from each of three CD (or CD D295R, CD F229I, CB, and CL) transgenic lines were analyzed (3 lines×3 trials of 30 animals/trial=270 total animals scored).
It was further investigated whether human CD attenuates the loss of dopaminergic neurons in a C. elegans model of α-syn-induced neurodegeneration (Cooper et al., Science 313:324-8 (2006)).

α-syn = assay: Western blot of α-syn after CD co-transfection; format: cell-based, human; details: SHSY5Y cells, co-expression with α-syn-GFP
Method: as §1
Western blot: Wildtype and CD−/− cortex (n≧3 each genotype) were homogenized in 10 volumes of ice-cold lyses buffer (50 mM Tris-HCl pH 7.4, 175 mM NaCl, 5 mM EDTA), sonicated for 10 seconds, add TritonX-100 to 1% and incubated for 30 minutes on ice. Homogenates were then centrifuges at 15,000 g for 15 min at 4° C. to separate supernatants (fractions soluble in 1% TritonX-100) and pellets (TritonX-100-insoluble fractions) as described in Giasson et al., Neuron 34:521-33 (2002). Pellets were resuspended in lyses buffer containing 2% SDS. […]

| Substance | staurosporine-induced cell death (SHSY5Y cells; 2 μM staurosporine) | chloroquine-induced cell death (SHSY5Y cells; 10 μM chloroquine) | A30P mutant α-syn-induced cell death (SHSY5Y cells; co-transfection with A30P mutant α-syn) | A53T mutant α-syn-induced cell death (SHSY5Y cells; co-transfection with A53T mutant α-syn) | Y125A mutant α-syn-induced cell death (SHSY5Y cells; co-transfection with Y125A mutant α-syn (CD cleavage site)) | protection against α-syn overexpression-induced cell death (SHSY5Y cells; wildtype GFP-α-syn co-transfection, 72 hours, viable cells by trypan blue) | protection from α-syn-induced dopaminergic neurodegeneration (dopaminergic neurons) | percentage of worms exhibiting the wildtype neuronal complement of all 6 anterior DA neurons (dopaminergic neurons; 7 day old worms overexpressing α-syn in DA neurons, n=270, α-syn alone 15-16%) | truncation/cleavage of α-syn-GFP (α-syn) |
| --- | --- | --- | --- | --- | --- | --- | --- | --- | --- |
| CD: principal lysosomal aspartate protease; human CD overexpressed by transfection or transgene (pCMV-CD) | ineffective; also recorded: does not reduce | ineffective; also recorded: does not reduce | protective; also recorded: reduced | protective; also recorded: reduced | resists neuroprotection by elevated CD; also recorded: does not reduce | provided significant protection; also recorded: protected against α-syn overexpression-induced cell death | significantly protected against dopaminergic neurodegeneration; also recorded: protects worms from neurodegeneration | 30% | produced a cleavage product of α-syn-GFP; also recorded: resulted in truncation of α-syn-GFP |
| CL: related human cathepsin gene product, representative lysosomal cysteine protease, overexpressed in worms |  |  |  |  |  |  | did not attenuate dopaminergic neuron death; also recorded: did not have the same effect as the wildtype CD |  |  |
| D295R: enzymatic mutant of CD, human cDNA overexpressed in transgenic worms |  |  |  |  |  |  | did not attenuate dopaminergic neuron death; also recorded: did not have the same effect as the wildtype CD |  |  |
